Laboratory results from patent publication US6897028B1, “Identification of molecular targets” (Florida State University, priority 1997, dated 2005).

Experiments:
[1] = molecular target: human LIF (Homo sapiens, UniProt P15018); assay: ELISA binding of biotinylated dioxin to LIF; details: species not given
Experimental: The applicants utilized the same biotinylated dioxin as Petrenko in an ELISA assay for binding to LIF, to several mutants of the LIF protein changed in the EPFP homology domain (residues 50-53), to anti-dioxin antibodies as a positive control, and to ciliary neurotrophic factor (CNTF) (structurally similar to LIF but lacking the SEQ. ID NO. 5 motif) as a negative control. […] to human and murine LIF with a KD of approximately 10-100 μM, indicating an affinity approximately 10,000 fold less than the anti-dioxin antibodies used as a positive control.

[2] = molecular target: T1, Bcl-2/GST fusion protein (Homo sapiens, UniProt P10415); assay: ELISA binding of Bcl-2/GST fusion protein to immobilized biotinylated taxane; details: confirmation of binding of Bcl-2 to taxol
Excerpt: ELISA binding assays were used to determine if the Bcl-2/GST fusion protein binds directly to immobilized biotinylated taxol. Anti-Bcl-2 antibodies were used to detect Bcl-2 binding. […] The x-axis is the log nM concentration of protein in solution (Bcl-2 or Bcl-XL); the y-axis is the uncorrected optical density at 490 nm. The insert is the chemical structure of the biotinylated taxol used in the selection of peptides.

[3] = molecular target: T1, Bcl-2/GST fusion protein; assay: Circular dichroism spectroscopy of Bcl-2/GST with and without taxol; assay type: binding
Excerpt: Each spectrum is the averaged result of five spectra and subtracted baselines with standard deviations as indicated. These differences are much larger than the error bars (standard deviations) in the measurements, and involve a change in both the shape of the curve (ratio of the 220/210 nm peaks) and the peak positions. The secondary structures calculated for the Bcl-2 fusion protein with and without taxol differ by approximately 4%, and appear to involve a change in a region of the molecule that is found in a beta-turn conformation. This corresponds to the type of secondary structure which is predicted for the HTPHP-containing portion of the Bcl-2 loop region (SEQ. ID No. 3). […] Homology between TAX2.29 and human Bcl-2 lies between positions 1 through 12 and residues 55 through 66 respectively, inferring a minimum drug/protein interaction of at least twelve amino acids.

[4] = molecular target: GST (Schistosoma japonicum, UniProt P08515); assay: Circular dichroism control: purified GST with and without taxol; assay type: binding; details: GST alone
Experimental: In a control experiment, taxol was added to purified GST from S. japonicum. […] The differences are far smaller than the error bars, and there is no change in the 220/210 nm ratio, nor is a peak shift observed. This means that were there any net structural change within the GST molecule alone, it would involve less than 0.5% of its total secondary structure. […] Furthermore, this binding has significant structural consequences for the Bcl-2 protein, involving approximately 15% to 20% of the loop residues.

[5] = system: 697 human acute leukemia pre-B cells; details: 697 cells; cited from earlier work

T1 sequence (P10415 whole entry, the tested form may be a part): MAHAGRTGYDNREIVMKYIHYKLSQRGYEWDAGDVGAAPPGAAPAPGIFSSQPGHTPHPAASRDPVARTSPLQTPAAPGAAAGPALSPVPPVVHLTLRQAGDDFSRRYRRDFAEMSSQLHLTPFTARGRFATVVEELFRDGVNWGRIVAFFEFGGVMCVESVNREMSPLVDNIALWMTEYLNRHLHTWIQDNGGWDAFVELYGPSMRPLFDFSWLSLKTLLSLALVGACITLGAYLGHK
Sequence of GST (P08515 whole entry): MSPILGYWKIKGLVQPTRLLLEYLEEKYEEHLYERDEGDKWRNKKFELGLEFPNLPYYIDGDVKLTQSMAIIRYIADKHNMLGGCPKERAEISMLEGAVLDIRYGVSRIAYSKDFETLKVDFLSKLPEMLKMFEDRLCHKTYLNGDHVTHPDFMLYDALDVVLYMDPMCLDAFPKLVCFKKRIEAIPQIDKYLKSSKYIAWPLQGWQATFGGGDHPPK
Sequence of human LIF (P15018 23-202): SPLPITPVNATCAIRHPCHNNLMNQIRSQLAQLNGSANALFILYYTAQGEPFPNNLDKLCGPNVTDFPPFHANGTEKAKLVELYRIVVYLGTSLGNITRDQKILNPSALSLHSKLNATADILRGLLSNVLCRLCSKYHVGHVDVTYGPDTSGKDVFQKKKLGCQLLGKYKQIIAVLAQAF

| SMILES | binding affinity in words [1] | binding affinity in words [2] | difference in calculated secondary structure with and without taxol ([3]; CD, beta-turn region) | conformational change upon binding taxol (CD spectrum) ([3]; spectra with and without taxol) | CD spectra with and without taxol [4] | net structural change as share of total secondary structure [4] | apoptosis [5] | phosphorylation of Bcl-2 [5] |
| --- | --- | --- | --- | --- | --- | --- | --- | --- |
| C1=COC=CO1 [dioxin] | at least micromolar affinity | – | – | – | – | – | – | – |
| CC(=O)O[C@H]1C(=O)[C@@]2(C)[C@H]([C@H](OC(=O)c3ccccc3)[C@]3(O)C[C@H](OC(=O)[C@H](O)[C@@H](NC(=O)c4ccccc4)c4ccccc4)C(C)=C1C3(C)C)[C@]1(OC(C)=O)CO[C@@H]1C[C@@H]2O [taxol] | – | micromolar affinity | approximately 4% | substantial conformational change | virtually identical | less than 0.5% | induces | induces |
| CC(=O)O[C@@]12CO[C@@H]1C[C@H](O)[C@@]1(C)C(=O)[C@H](O)C3=C(C)[C@@H](OC(=O)[C@H](O)[C@@H](NC(=O)OC(C)(C)C)c4ccccc4)C[C@@](O)([C@@H](OC(=O)c4ccccc4)[C@H]21)C3(C)C [taxotere] | – | – | – | – | – | – | induces | induces |
